Test results reported in patent publication US12357598B2, “Treatment of neurodevelopmental disorders” (THE REGENTS OF THE UNIVERSITY OF CALIFORNIA, priority 2018, dated 2025).

Columns and labels:
Assay type in all cases: in vivo, mouse
Ephx2 mRNA = experiment: Quantitative RT-PCR of Ephx2 mRNA in brain regions of juvenile offspring after MIA; details: juvenile offspring of poly(I:C)-treated mice vs saline-treated mice
Source text: Gene expression analysis by quantitative real-time PCR. At juvenile (P28) stage, mice were sacrificed, and their brains were removed for measurement of gene expression of Ephx2 mRNA. Brain regions such as PFC, striatum, CA1, CA3 and DG of the hippocampus were dissected from brain on ice using a Leica microscope S9E (Leica Microsystems, Tokyo, Japan). A quantitative RT-PCR system (Step One Plus, Thermo Fisher Scientific, Yokohama, Japan) was used to measure mRNAs. The specific mRNA transcripts were quantified by TaqManGene Expression assays (Thermo Fisher Scientific, Yokohama, Japan). Expression levels of Ephx2 (Mm01313813_m1) was measured in brain tissue. Total RNA was extracted by use of an RNeasy Mini Kit (Qiagen, Hilden, Germany). The purity of total RNA was assessed by Biophotometer plus (Eppendorf, Hamburg, Germany). The RNA samples were used in the first strand cDNA synthesis with High Capacity cDNA Reverse Transcription Kit (#4368813 Thermo Fisher Scientific, Yokohama, Japan). All samples were tested in triplicate and average values were used for quantification. The average values were normalized to Vic-labeled Actb mRNA (Cat #4352341E: pre-developed TaqMan Assay Reagents, Thermo Fisher Scientific, Yokohama, Japan).

ddY mice [1] = experiment: Prepulse inhibition (PPI) test, offspring after maternal glyphosate exposure; details: juvenile offspring, maternal 0.095% glyphosate vs water
Experimental: PPI: The offspring mice were tested for their acoustic startle reactivity (ASR) in a startle chamber (SR-LAB; San Diego Instruments, San Diego, CA, USA) using the standard methods described previously (9,10). The test sessions were begun after an initial 10-min acclimation period in the chamber. The mice were subjected to one of six trials: (1) pulse alone, as a 40 ms broadband burst; a pulse (40 ms broadband burst) preceded by 100 ms with a 20 ms prepulse that was (2) 4 dB, (3) 8 dB, (4) 12 dB, or (5) 16 dB over background (65 dB); and (6) background only (no stimulus). The amount of prepulse inhibition (PPI) was expressed as the percentage decrease in the amplitude of the startle reactivity caused by presentation of the prepulse (% PPI). The PPI test lasted 20 min in total.

ddY mice [2] = experiment: Measurement of NMDAR-related amino acids in plasma and brain after maternal glyphosate exposure; details: juvenile offspring (P28)
Experimental: Measurement of amino acids. On P28, mice were deeply anesthetized with isoflurane and plasma was collected. Subsequently, prefrontal cortex (PFC), hippocampus and striatum were quickly dissected on ice from whole brain. The dissected tissues were weighed and stored at −80° C. until assayed. Levels of amino acids (glutamate, glutamine, glycine, L-serine, D-serine, GABA) were measured using high performance liquid chromatography system (Shimadzu Corporation, Kyoto, Japan), as reported previously (12,18,19).

ddY mice [3] = experiment: Locomotion, offspring after maternal glyphosate exposure; details: juvenile offspring, maternal 0.095% glyphosate vs water
Experimental: Locomotor Activity: Both horizontal and rearing activity were monitored by an infrared ray passive sensor system (SCANET-SV10, Melquest Ltd., Toyama, Japan), and activity was integrated every minute. Individual mice were placed in activity chambers and allowed 1 hour of free exploration as spontaneous activity.

sEH = experiment: Western blot of sEH in brain regions after maternal glyphosate exposure
Source text: Collection of blood and brain samples and oxylipin analysis. Water or 0.095% glyphosate was given to pregnant mice from E5 to P21, as described above. The male offspring were separated from their mothers at weaning (P21). At juvenile (P28) stage, mice were deeply anesthetized with isoflurane and plasma was collected. Subsequently, brains were removed from the skulls. For Western blot analysis, brain regions such as prefrontal cortex (PFC), hippocampus, and striatum, were dissected from brain on ice. The samples were stored at −80° C. before assay. For oxylipin analysis, plasma was collected after isoflurane anesthesia at juvenile (P28) stage. Subsequently, PFC, hippocampus, and striatum were dissected from brain on ice, and the samples were stored at −80° C. before assay. […]
Western blot analysis. […] 50 μg of protein were measured using the DC protein assay kit (Bio-Rad), and incubated for 5 min at 95° C., with an equal volume of 125 mM Tris-HCl, pH6.8, 20% glycerol, 0.1% bromophenol blue, 10% β-mercaptoethanol, 4% sodium dodecyl sulfate, and subjected to sodium dodecyl sulfate polyacrylamide gel electrophoresis, using 7.5% or AnyKD mini-gels (Mini-PROTEAN® TGX™ Precast Gel; Bio-Rad, CA, USA). […] After final three washes with TBST, bands were detected using enhanced chemiluminescence (ECL) prime Western Blotting Detection system (GE Healthcare Bioscience). […]

polyriboinosinic-polyribocytidilic acid [Poly(I:C)]
expression of sEH (or Ephx2) mRNA in the PFC (Ephx2 mRNA): significantly higher

O=C(O)CNCP(=O)(O)O [glyphosate]
prepulse inhibition (PPI) (ddY mice [1]): not different
D-Serine level (ddY mice [2]; PFC): 0.313 ± 0.010 nmol/mg tissue
GABA level (ddY mice [2]; PFC): 2.060 ± 0.058 nmol/mg tissue
Glutamate level (ddY mice [2]; PFC): 10.392 ± 0.377 nmol/mg tissue
Glutamine level (ddY mice [2]; PFC): 5.053 ± 0.243 nmol/mg tissue
Glycine level (ddY mice [2]; PFC): 0.705 ± 0.023 nmol/mg tissue
L-Serine level (ddY mice [2]; PFC): 0.622 ± 0.016 nmol/mg tissue
D-Serine level (ddY mice [2]; hippocampus): 0.259 ± 0.017 nmol/mg tissue
GABA level (ddY mice [2]; hippocampus): 2.469 ± 0.097 nmol/mg tissue
Glutamate level (ddY mice [2]; hippocampus): 9.350 ± 0.282 nmol/mg tissue
Glutamine level (ddY mice [2]; hippocampus): 4.765 ± 0.137 nmol/mg tissue
Glycine level (ddY mice [2]; hippocampus): 0.725 ± 0.030 nmol/mg tissue
L-Serine level (ddY mice [2]; hippocampus): 0.662 ± 0.037 nmol/mg tissue
D-Serine level (ddY mice [2]; plasma): 7.522 ± 0.578 nmol/mL
Glutamate level (ddY mice [2]; plasma): 38.003 ± 1.974 nmol/mL
Glutamine level (ddY mice [2]; plasma): 496.268 ± 15.748 nmol/mL
Glycine level (ddY mice [2]; plasma): 354.185 ± 9.806 nmol/mL
L-Serine level (ddY mice [2]; plasma): 144.824 ± 4.622 nmol/mL
D-Serine level (ddY mice [2]; striatum): 0.281 ± 0.010 nmol/mg tissue
GABA level (ddY mice [2]; striatum): 3.076 ± 0.151 nmol/mg tissue
Glutamate level (ddY mice [2]; striatum): 7.745 ± 0.141 nmol/mg tissue
Glutamine level (ddY mice [2]; striatum): 5.735 ± 0.319 nmol/mg tissue
Glycine level (ddY mice [2]; striatum): 0.755 ± 0.039 nmol/mg tissue
L-Serine level (ddY mice [2]; striatum): 0.715 ± 0.032 nmol/mg tissue
locomotion (ddY mice [3]): not different
protein levels of sEH in the PFC, hippocampus, and striatum (sEH; juvenile offspring (P28) after maternal glyphosate exposure vs water): significantly higher
protein levels of sEH in the PFC and striatum of mothers (sEH; mothers treated with glyphosate vs water-treated mice): significantly higher
